Measurements from patent US9505775B2, “Inhibitors of cytomegalovirus” (Boehringer Ingelheim International GmbH, priority 2012, dated 2016).

molecular target: T1, purified recombinant HCMV polymerase from strain AD169 (UL54) (Human cytomegalovirus, UniProt P08546); assay: HCMV Polymerase LANCE TR-FRET Assay; type: biochemical; conditions: 2 nM GST-UL54, 37° C. for 30 min; read-out: IC50 (nM) Example B
T1 construct: made in house; host or cells: Sf21 insect cells (baculovirus)
Experimental: This non-radiometric assay determines the enzymatic activity of purified recombinant HCMV polymerase from strain AD169 (UL54) using a Digoxigenin-labeled oligonucleotide priming a heteropolymeric template. The enzymatic activity is determined by incorporating Biotin-dUTP in the nascent complementary strand. The signal is generated by Fluorescence Resonance Energy Transfer from the donor (Anti-Digoxigenin-Europium Chelate binding with the primer) to the acceptor Streptavidin-AlloPhycoCyanin (SA-APC) binding to the biotin of the labeled nucleotides incorporated in proximity.
Serial dilutions of the DMSO stock compound solution are performed using DMSO in columns 2-11 and 14-23. DMSO alone is present in columns 1, 12, 13 and 24. Three μL of the DMSO serial dilutions is transferred and diluted using 21 μL of compound dilution buffer (10 mM Hepes pH 7.5, 25 mM KCl, 5 mM MgCl2, 1 mM TCEP) to obtain 12.5% DMSO. 4 μL per well of the 12.5% DMSO serial dilution compound solution is added to the assay plate. The plate is centrifuged at 200×g for 30 sec.
The assay conditions are the following: 10 mM HEPES pH 7.5, 25 mM KCl, 7.5 mM NaCl, 5 mM MgCl2, 0.2 mg BSA/mL, 1 mM TCEP, 1.5% glycerol, 5% DMSO, 235 nM dATP, 350 nM dCTP, 350 nM dGTP, 235 nM dTTP, 12 nM biotin-16-dUTP, 23.5 nM Dig-primer/template, 2 nM GST-UL54. The assay volume is 10 μL. […] The primer and template are annealed in 10 mM Tris-HCl pH 7.5, 50 mM NaCl at a respective concentration of 50 μM. They are incubated at 95° C. for 5 min in a dry batch block. The block is removed from the dry bath and allowed to cool to RT. Aliquots are made and stored at −20° C.
To perform the assay, 3 μL of the enzyme solution is added to columns 2-12 and 14-24. The enzyme is substituted by the blank solution (b solution without enzyme) for columns 1 and 13 (blanks). The plate is centrifuged at 200×g for 30 sec. 3 μL of substrate solution is added to each well. The plate is centrifuged at 200×g for 30 sec. Plates are incubated at 37° C. for 30 min. 5 μL of conjugate solution is added (25 mM Hepes pH 7.5, 0.1 M NaCl, 0.25% Tween-20, 1 mg/mL BSA, 12 mM EDTA, 24 nM Sreptavidin-APC, 342 ng/mL Anti-Dig-Europium). The plates are incubated at RT for at least 120 min. The signal is read on the Envision plate reader (Perkin-Elmer) or equivalent.

T1 sequence (P08546 whole entry): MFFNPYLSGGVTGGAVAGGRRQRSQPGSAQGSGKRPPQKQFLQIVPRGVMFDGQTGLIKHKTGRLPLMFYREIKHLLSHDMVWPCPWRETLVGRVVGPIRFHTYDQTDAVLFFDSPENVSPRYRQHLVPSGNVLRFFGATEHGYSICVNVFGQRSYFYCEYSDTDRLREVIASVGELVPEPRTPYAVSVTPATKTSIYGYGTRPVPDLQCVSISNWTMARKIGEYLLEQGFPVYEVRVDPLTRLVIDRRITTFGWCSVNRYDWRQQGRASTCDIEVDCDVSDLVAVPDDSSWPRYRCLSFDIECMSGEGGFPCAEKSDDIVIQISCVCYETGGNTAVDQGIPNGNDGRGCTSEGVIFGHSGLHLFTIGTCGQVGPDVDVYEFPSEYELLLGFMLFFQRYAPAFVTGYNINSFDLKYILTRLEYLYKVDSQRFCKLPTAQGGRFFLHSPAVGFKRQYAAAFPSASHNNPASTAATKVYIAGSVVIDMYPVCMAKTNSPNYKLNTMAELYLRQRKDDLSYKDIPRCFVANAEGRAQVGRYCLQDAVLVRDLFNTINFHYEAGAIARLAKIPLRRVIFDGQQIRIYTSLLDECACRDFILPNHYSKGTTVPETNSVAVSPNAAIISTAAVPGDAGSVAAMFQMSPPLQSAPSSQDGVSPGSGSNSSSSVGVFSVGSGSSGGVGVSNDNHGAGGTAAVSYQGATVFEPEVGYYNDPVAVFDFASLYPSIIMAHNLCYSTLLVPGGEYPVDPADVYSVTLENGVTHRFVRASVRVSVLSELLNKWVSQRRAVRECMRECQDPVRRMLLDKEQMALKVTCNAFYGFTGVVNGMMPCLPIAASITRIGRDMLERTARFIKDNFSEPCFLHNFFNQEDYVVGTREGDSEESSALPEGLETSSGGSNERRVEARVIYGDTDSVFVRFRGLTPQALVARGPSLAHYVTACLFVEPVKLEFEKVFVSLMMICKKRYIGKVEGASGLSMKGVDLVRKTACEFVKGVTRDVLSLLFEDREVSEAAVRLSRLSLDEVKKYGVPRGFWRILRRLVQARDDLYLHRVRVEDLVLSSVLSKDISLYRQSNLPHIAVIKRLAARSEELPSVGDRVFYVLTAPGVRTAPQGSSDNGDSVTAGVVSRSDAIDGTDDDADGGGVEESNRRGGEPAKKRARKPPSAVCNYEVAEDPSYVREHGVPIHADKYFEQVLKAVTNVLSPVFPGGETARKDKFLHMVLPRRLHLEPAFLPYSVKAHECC

Compound	IC50 [nM]
CC(c1ccc2c(c1)C(C)(C)CN2C(=O)[C@H]1CC(=O)N(c2cccc(C#N)c2)C1)n1ccnc1 (mixture of isomers) [11rr1]	350
CC1CN(C(=O)[C@H]2CC(=O)N(c3cccc(C#N)c3)C2)c2ccc(CCn3ccnc3)cc21 (single isomer, unassigned) [11aa1]	100
CC1CN(C(=O)[C@H]2CC(=O)N(c3cccc(C#N)c3)C2)c2ccc(CCc3cncnc3)cc21 (single isomer, unassigned) [11dd1]	71
CC1CN(C(=O)[C@H]2CC(=O)N(c3cccc(Cl)c3)C2)c2ccc(CCn3ccnc3)cc21 (single isomer, unassigned) [11ee1]	63
CC1CN(C(=O)[C@H]2CC(=O)N(c3cccc(Cl)c3)C2)c2ccc(CCc3cncnc3)cc21 (single isomer, unassigned) [11hh1]	150
Cn1cncc1CCc1ccc2c(c1)C(C)(CO)CN2C(=O)[C@H]1CC(=O)N(c2cccc(Cl)c2)C1 (single isomer, unassigned) [11oo1]	1600
Cc1ncc(Cc2ccc3c(c2)C(C)(CO)CN3C(=O)[C@H]2CC(=O)N(c3cccc(Cl)c3)C2)o1 (single isomer, unassigned) [11qq1]	750
Cc1nccn1Cc1ccc2c(c1)C(C)CN2C(=O)[C@H]1CC(=O)N(c2cccc(C#N)c2)C1 (single isomer, unassigned) [13o1]	3200
CC(=O)N1CCC2(CC1)CN(C(=O)[C@H]1CC(=O)N(c3cccc(C#N)c3)C1)c1ccc(CN3CCOCC3)cc12 [11a1]	580
CC1(C)CN(C(=O)[C@H]2CC(=O)N(c3cccc(C#N)c3)C2)c2ccc(CCc3ccccn3)cc21 [11bbb1]	310
CC1(C)CN(C(=O)[C@H]2CC(=O)N(c3cccc(C#N)c3)C2)c2ccc(CCc3cccc(O)c3)cc21 [11ccc1]	87
CC1(C)CN(C(=O)[C@H]2CC(=O)N(c3cccc(C#N)c3)C2)c2ccc(CCc3cncc(N)c3)cc21 [11ddd1]	38
CC1(C)CN(C(=O)[C@H]2CC(=O)N(c3cccc(C#N)c3)C2)c2ccc(CCn3ccnc3)cc21 [11e1]	240
CC1(C)CN(C(=O)[C@H]2CC(=O)N(c3cccc(C#N)c3)C2)c2ccc(CCc3cncnc3)cc21 [11f1]	95
CC1(C)CN(C(=O)[C@H]2CC(=O)N(c3cccc(Cl)c3)C2)c2ccc(CCn3ccnc3)cc21 [11g1]	200
CC1(C)CN(C(=O)[C@H]2CC(=O)N(c3cccc(Cl)c3)C2)c2ccc(CCc3cncnc3)cc21 [11h1]	94
Cc1cc2c(cc1Cn1ccnc1C)C(C)(C)CN2C(=O)[C@H]1CC(=O)N(c2cccc(C#N)c2)C1 [11q1]	49
Cc1c(Cn2ccnc2C)ccc2c1C(C)(C)CN2C(=O)[C@H]1CC(=O)N(c2cccc(C#N)c2)C1 [11r1]	480
Cc1nccn1Cc1cc2c(cc1C(F)(F)F)N(C(=O)[C@H]1CC(=O)N(c3cccc(C#N)c3)C1)CC2(C)C [11s1]	590
Cc1ccc(CCc2ccc3c(c2)C(C)(C)CN3C(=O)[C@H]2CC(=O)N(c3cccc(C#N)c3)C2)cn1 [11ss1]	130
CC1(C)CN(C(=O)[C@H]2CC(=O)N(c3cccc(C#N)c3)C2)c2ccc(CCc3cncc(C#N)c3)cc21 [11t1]	370
Cn1cc(CCc2ccc3c(c2)C(C)(C)CN3C(=O)[C@H]2CC(=O)N(c3cccc(C#N)c3)C2)cn1 [11v1]	510
CC1(C)CN(C(=O)[C@H]2CC(=O)N(c3cccc(C#N)c3)C2)c2ccc(Cn3cnnc3)cc21 [11vv1]	160
CC1(C)CN(C(=O)[C@H]2CC(=O)N(c3cccc(C#N)c3)C2)c2ccc(CCn3cncn3)cc21 [11zz1]	99
N#Cc1cccc(N2C[C@@H](C(=O)N3CCc4cc(Cn5ccnc5)ccc43)CC2=O)c1 [13a1]	150
CC1(C)CN(C(=O)[C@H]2CC(=O)N(c3cccc(Cl)c3)C2)c2ccc(Cn3ccnc3)cc21 [13d1]	110
Cc1nccn1Cc1cc2c(cc1F)N(C(=O)[C@H]1CC(=O)N(c3cccc(C#N)c3)C1)CC2(C)C [13f1]	140

Compound	IC50 [nM]
Cc1nccn1Cc1ccc2c(c1F)C(C)(C)CN2C(=O)[C@H]1CC(=O)N(c2cccc(C#N)c2)C1 [13g1]	2100
CC1(C)CN(C(=O)C2CC(=O)N(c3cccc(C#N)c3)C2)c2cc(Cl)c(Cn3cnnc3)cc21 (stereo not drawn) [13l1]	230
N#Cc1cccc(N2C[C@@H](C(=O)N3CC4(CC4)c4cc(Cn5ccnc5)ccc43)CC2=O)c1 [13r1]	360
N#Cc1cccc(N2C[C@@H](C(=O)N3CC4(CCOCC4)c4cc(Cn5ccnc5)ccc43)CC2=O)c1 [13t1]	730
CC(=O)N1CCC2(CC1)CN(C(=O)[C@H]1CC(=O)N(c3cccc(C#N)c3)C1)c1ccc(Cn3ccnc3C)cc12 [13v1]	1600
CC1(C)CN(C(=O)C2CC(=O)N(c3cccc(C#N)c3)C2)c2ccc(COc3cncnc3)cc21 (stereo not drawn) [13w1]	840
Cc1nccn1Cc1cc2c(cc1Cl)N(C(=O)[C@H]1CC(=O)N(c3cccc(C#N)c3)C1)CC2(C)C [13x1]	50
CC(C)n1cnnc1CN(C)Cc1ccc2c(c1)CCN2C(=O)C1CC(=O)N(c2cccc(C#N)c2)C1 (stereo not drawn) [16c3]	600
CC1(C)CN(C(=O)[C@H]2CC(=O)N(c3cccc(C#N)c3)C2)c2cc(Cl)c(CCn3ccnc3)cc21 [17b1]	330
N#Cc1cccc(N2C[C@@H](C(=O)N3CCc4nc(CCn5ccnc5)ccc43)CC2=O)c1 [17n1]	540
CNc1ncc(CCc2ccc3c(c2)C(C)(C)CN3C(=O)[C@H]2CC(=O)N(c3cccc(C#N)c3)C2)cn1 [17o1]	240
CC1(C)CN(C(=O)[C@H]2CC(=O)N(c3cccc(C#N)c3)C2)c2ccc(CCc3ccccc3)cc21 [19b2]	990
Cn1cncc1CCc1ccc2c(c1)C(C)(C)CN2C(=O)[C@H]1CC(=O)N(c2cccc(C#N)c2)C1 [19c2]	420
CC1(C)CN(C(=O)[C@H]2CC(=O)N(c3cccc(C#N)c3)C2)c2ccc(Cc3cnoc3)cc21 [22a2]	260
Cc1noc(C)c1Cc1ccc2c(c1)C(C)(C)CN2C(=O)[C@H]1CC(=O)N(c2cccc(C#N)c2)C1 [22bb1]	350
Cc1oncc1Cc1ccc2c(c1)CCN2C(=O)[C@H]1CC(=O)N(c2cccc(C#N)c2)C1 [22dd1]	290
Cn1cncc1Cc1ccc2c(c1)CCN2C(=O)[C@H]1CC(=O)N(c2cccc(C#N)c2)C1 [22j1]	480
CC1(C)CN(C(=O)[C@H]2CC(=O)N(c3cccc(C#N)c3)C2)c2ccc(Cc3cncnc3)cc21 [22l1.2]	380
CC1(C)CN(C(=O)[C@H]2CC(=O)N(c3cccc(C#N)c3)C2)c2ccc(Cc3ccncc3)cc21 [22o1]	2900
Cc1ncc(Cc2ccc3c(c2)C(C)(C)CN3C(=O)C2CC(=O)N(c3cccc(C#N)c3)C2)o1 (stereo not drawn) [22s1]	550
N#Cc1cccc(N2C[C@@H](C(=O)N3CC4(CC4)c4cc(Cc5cncnc5)ccc43)CC2=O)c1 [22u1]	570
Cc1ncc(Cc2ccc3c(c2)C2(CC2)CN3C(=O)[C@H]2CC(=O)N(c3cccc(C#N)c3)C2)o1 [22v1]	790
Cc1ncc(Cc2ccc3c(c2)C(C)(C)CN3C(=O)[C@H]2CC(=O)N(c3cccc(C#N)c3)C2)o1 [22w1]	470
CC(=O)N1CCC2(CC1)CN(C(=O)[C@H]1CC(=O)N(c3cccc(C#N)c3)C1)c1ccc(Cc3cncnc3)cc12 [22z1]	1300
CC1(C)CN(C(=O)[C@H]2CC(=O)N(c3cccc(C#N)c3)C2)c2ccc(Cn3ccnc3CC(=O)O)cc21 [24a1]	690
CC1(C)CN(C(=O)[C@H]2CC(=O)N(c3cccc(C#N)c3)C2)c2ccc(Cn3cncc3C(=O)O)cc21 [24d1]	550
CC1(C)CN(C(=O)[C@H]2CC(=O)N(c3cccc(C#N)c3)C2)c2ccc(CNc3cncnc3)cc21 [31a1]	86
